Each block holds one molecule with its values, some of them ahead of it.
Legend:
[1] = double bond (vinylene) moiety apt to be isomerized; cited from earlier work
[2] = tested on: adenosine A2 receptor; conditions: cited from earlier work
[3] = Photostability: residual ratio of Compound 1 after irradiation under a fluorescent lamp; format: physicochemical; conditions: no HPMC, unpulverized; about 5,000 lx fluorescent lamp, 8 hours
Protocol: Photostability of each sample was traced by measuring the residual ratio (%) of “Compound 1” in the sample according to the following method.
Transparent glass vials, in which the samples were weighed and filled, were stored at about 5,000 lx under a fluorescent lamp, and each sample was sampled 8 hours after the irradiation. The sampled sample was dissolved in a mixed solvent of water and acetonitrile (water:acetonitrile=60:40), and then the amount of “Compound 1” in the sample was determined quantitatively by using a high-performance liquid chromatography (HPLC). Amount of “Compound 1” before irradiation was defined as 100% and the amount of “Compound 1” after irradiation thereto was calculated as the residual ratio (%).
Conditions for the measurement by HPLC are as follows.
Instrument for analysis: Series LC-6 (manufactured by Shimadzu)
Column: Inertsil ODS-2 (φ6×150 mm)
Column temperature: 25° C.
Mobile phase: 50 mmol/L KH2PO4 (pH 6.1, KOH)/acetonitrile=60/40
Detecting condition: UV 248 nm

[4] = Crystallinity by powder X-ray diffraction; format: physicochemical
From the text: Although there is no particular limitation for the “microcrystal(s) of (E)-8-(3,4-dimethoxystyryl)-1,3-diethyl-7-methyl-3,7-dihydro-1H-purine-2,6-dione having an average particle size of less than 50 μm” (that is “microcrystal(s) of Compound 1”) of the present invention so far as it is the crystalline Compound 1 having an average particle size of less than 50 μm, among them microcrystal(s) having an average particle size of 0.5 to 20 μm is/are preferable. The “microcrystal(s) of Compound 1” having a crystallinity of 20% or more is/are more preferable. Among them, the “microcrystal(s) of Compound 1” having a crystallinity of 30% or more is/are still more preferable and the “microcrystal(s) of Compound 1” having a crystallinity of 40% or more is/are most preferable. Incidentally, the average particle size thereof can be measured by using, for example, a laser diffraction/scattering particle size distribution analyzer (e.g., Mastersizer 2000, Ver. 2.00J; manufactured by Malvern Instruments), an image analyzer (e.g., Luzex® AP; manufactured by Nileco) or the like, and can be calculated as the mean of the particle size distribution. The crystallinity thereof can be calculated by measuring the integral intensity of the diffraction peak at a specific angle of diffraction 2θ by using a powder X-ray diffractmeter (e.g., JDX 8030; manufactured by Nippon Denshi).
The crystallinity of Compound 1 in each Sample (hereinafter, may be just referred to as the crystallinity) was calculated by the following method after measuring the diffraction peak of each Sample by changing from 0° to 40° at the angle of diffraction 2θ by a powder X-ray diffractmeter.
A calibration curve used for the calculation of the relative crystallinity was prepared by measuring the integral intensity of the diffraction peak at angle of diffraction 2θ=about 16° using physical mixtures prepared in various ratios and then plotting the ratios of amounts of the “crystalline Compound 1” in the physical mixtures against the integral intensities of the diffraction peaks respectively.
An integral intensity of the diffraction peak of the sample at the angle of diffraction 2θ=about 16° was measured. An amount of the “crystalline Compound 1” in each sample was calculated from the measured integral intensity on the basis of the above-described calibration curve, and the relative crystallinity (%) of each sample was determined from the following formula as the ratio of the amount of “Compound 1” (“crystalline Compound 1” and “an amorphous Compound 1”) against the amount of the “crystalline Compound 1”. A crystallinity (%) was determined by a proportional calculation from the relative crystallinity (%) determined hereinabove and the crystallinity (87.2%) of the unpulverized “crystals of Compound 1”. Relative Crystallinity (%)=(Amount of the “crystalline Compound 1”/Amount of “Compound 1”)×100 <Method for Measurement of Photostability>

[5] = crystals synthesized by the prior-art process; cited from earlier work
[6] = Comparison of absorption in oral administration (plasma concentration); format: in vivo, male rats of SD strain; conditions: male SD rats; for Cmax (maximum concentration in plasma): 0.3 mg/mL suspension in 0.5 w/v % methyl cellulose at 10 mL/kg, mean ± s.e.m., three rats
Protocol: Each of Crystal B (the average particle size of crystals: 181 μm) and Microcrystals B (the average particle size of crystals: 11 μm) obtained in Example 3 was suspended in a 0.5 w/v % aqueous solution of methyl cellulose to prepare a drug liquid (0.3 mg/mL) for administration. The resulting drug liquid was orally administered to male rats of SD strain (body weight: 209 to 233 g; Nippon Charles River) at the dose of 10 mL/kg. Blood of the rat (about 0.3 mL for each time) was sequentially collected from tail vein by using a heparin-treated capillary tube 0.25, 0.5, 1, 2, 4, 6, 8, 12 and 24 hour(s) after the administration. The resulting blood was centrifuged (1,950×g, 10 minutes, 4° C.) and plasma was separated. Concentration of “Compound 1” in the resulting plasma was measured by HPLC and mean value from three rats was calculated. Maximum concentration in plasma (Cmax), the area under the plasma curve of concentration-time curve between the administration and the point which can be determined quantitatively finally (AUC0-t) and the area under the plasma curve of concentration-time curve between the administration and infinitive time (AUC0-∞), of case in which each of Crystals B and Microcrystals B were orally administered to the rat, are shown in Table 2. Incidentally, conditions for the measurement by HPLC are as follows. Instrument for analysis: Series L-7000 (manufactured by Hitachi) Column: Ultron VX-ODS (φ4.6×150 mm) Column temperature: 30° C. Mobile phase: 10 mmol/L acetate buffer (pH 5.7)/acetonitrile=53/47 […] Detecting condition: UV 360 nm

[7] = Solubility in water at room temperature against elapsed time; format: physicochemical; conditions: 2 mg in water (200 mL) at room temperature
Protocol: By using Crystals A (the average particle size of crystals: 167 μm, 2 mg) and Microcrystals A (the particle size of microcrystals D100=8.7 μm, 2 mg) obtained in Example 2, the solubility of each of them in water (200 mL) at room temperature was measured.

[8] = Aggregation and dispersing property during steps for preparing pharmaceutical formulation; format: physicochemical
[9] = drug substance crystals as obtained

Structure (SMILES): CCn1c(=O)c2c(nc(/C=C/c3ccc(OC)c(OC)c3)n2C)n(CC)c1=O [Compound 1, (E)-8-(3,4-dimethoxystyryl)-1,3-diethyl-7-methyl-3,7-dihydro-1H-purine-2,6-dione]
- stability under light [1]: unstable particularly under light
- adenosine A2 receptor antagonistic activity [2]: shows an adenosine A2 receptor antagonistic activity

- Residual Rate of “Compound 1” [3]: 100.0%
- crystallinity [4, 9]: 87.2%
- crystallinity ([4]; no HPMC, unpulverized): 87.2%
Structure (SMILES): CCn1c(=O)c2c(nc(/C=C/c3ccc(OC)c(OC)c3)n2C)n(CC)c1=O [Unpulverized “Crystals of Compound 1”, (E)-8-(3,4-dimethoxystyryl)-1,3-diethyl-7-methyl-3,7-dihydro-1H-purine-2,6-dione]
- solubility in water [5]: low

- crystallinity [4, 9]: 67.3%
- Cmax (maximum concentration in plasma) [6]: 0.238 ± 0.004 µg/mL
Structure (SMILES): CCn1c(=O)c2c(nc(/C=C/c3ccc(OC)c(OC)c3)n2C)n(CC)c1=O [Microcrystals B, (E)-8-(3,4-dimethoxystyryl)-1,3-diethyl-7-methyl-3,7-dihydro-1H-purine-2,6-dione]
- absorption in oral administration ([6]; compared with Crystals B): better absorption in oral administration than Crystals B

- crystallinity [4, 9]: 84.6%
- solubility of Compound 1 [7]: good solubility
- aggregation of the crystals during steps for preparing pharmaceutical formulation [8]: no phenomenon of aggregation
Structure (SMILES): CCn1c(=O)c2c(nc(/C=C/c3ccc(OC)c(OC)c3)n2C)n(CC)c1=O [Microcrystals A, (E)-8-(3,4-dimethoxystyryl)-1,3-diethyl-7-methyl-3,7-dihydro-1H-purine-2,6-dione]
- dissolving velocity ([7]; compared with Crystals A): quick dissolving velocity as compared to Crystals A
- dispersing property ([8]; compared with Crystals A): excellent dispersing property as compared to Crystals A

- crystallinity [4, 9]: 71.6%
- Cmax (maximum concentration in plasma) [6]: 0.0726 ± 0.0317 µg/mL
Structure (SMILES): CCn1c(=O)c2c(nc(/C=C/c3ccc(OC)c(OC)c3)n2C)n(CC)c1=O [Crystals B, (E)-8-(3,4-dimethoxystyryl)-1,3-diethyl-7-methyl-3,7-dihydro-1H-purine-2,6-dione]
